Test results from patent US11779577B2, “Nonselective metabotropic glutamate receptor activators for treatment of anorexia nervosa and binge eating disorder” (The Children's Hospital of Philadelphia, priority 2016, dated 2023).

Key:
[1] = tested on: ADHD; experiment: open-label Phase Ib clinical trial in adolescent ADHD subjects with CNV in an mGluR network gene; type: in vivo, human
Protocol: Previously, an open-label Phase Ib clinical trial was conducted to study the safety, pharmacokinetics, and efficacy of fasoracetam (fasoracetam monohydrate) in adolescent subjects between the ages of 12 and 17 previously diagnosed with ADHD. Each of the study subjects in this clinical trial had one or more CNV in an mGluR network gene.

[2] = tested on: adenylate cyclase activity; settings: cited from earlier work
[3] = tested on: dementia-related cognitive impairment; settings: cited from earlier work
[4] = tested on: group I and group II/III mGluRs; settings: in vitro studies (Hirouchi 2000); cited from earlier work
[5] = prior human studies; cited from earlier work
[6] = tested on: pediatric ADHD subjects; settings: compared to a placebo control; cited from earlier work

Compound | treatment of ADHD ([1]; adolescent subjects ages 12 to 17 with one or more CNV in an mGluR network gene) | appetite ([1]; children tested in the ADHD clinical study) | adenylate cyclase activity through group II and III mGluRs ([2]; by stimulating group II and III mGluRs (Oka 1997)) | adenylate cyclase activity through group I mGluRs ([2]; through activation of group I mGluRs (Oka 1997)) | safety and tolerability ([3]; Phase I-III trials, dementia-related cognitive impairment) | effects on psychiatric symptoms ([3]; Phase III data, cerebral infarct patients and adult dementia patients with cerebrovascular diseases) | efficacy in dementia ([3]; Phase III trials) | stimulation of mGluRs [4] | bioavailability [5] | half-life [5] [h] | ADHD symptoms [6]
O=C1CC[C@H](C(=O)N2CCCCC2)N1 [fasoracetam] | successfully treated | appetite was observed to be improved | may also inhibit adenylate cyclase activity | may stimulate adenylate cyclase activity | generally safe and well tolerated | beneficial effects | did not show sufficient efficacy | stimulate both group I and group II/III mGluRs | 79%-97% | 5 to 6.5 | 
NC(=O)CN1CCCC1=O [piracetam] |  |  |  |  |  |  |  |  |  |  | increase ADHD symptoms
